Source: patent EP4786486A1, “PEPTIDES FOR TREATING CARDIAC DISEASES” (Universidad Complutense De Madrid, priority 2023, dated 2025)
Where no end group is shown, it is not given here.

Key:
[1] = system: human minimal promoter of the SCN5A gene; test: Luciferase assay in hEK-293 cells, minimal promoter of SCN5A; format: cell-based; conditions: hEK-293, co-transfected with cDNA SEQ ID NO: 5, 48 hours
Procedure: (§1) 48 hours after transfection, luciferase assays were performed using the LightSwitch Luciferase Assay reagent, also from Active Motif, and a Berthold luminometer. All assays were performed in triplicate and each point represents the mean of each technical triplicate.

[2] = system: murine model of CI with reduced ejection fraction (HFrEF); test: Murine model of CI (transverse aortic constriction): capacitance, INa and IK1 of dissociated cardiomyocytes; format: in vivo, mice
Description: (§2) A murine model of CI with reduced ejection fraction (HFrEF) was used to analyse the effect of SEQ ID NO: 3 on the decrease in INa and IK1 caused by electrical remodelling associated with Cl. The mice are subjected to transverse aortic constriction (TAC) with ligation, and pressure overload leads to the occurrence of cardiac hypertrophy and Cl. The mice were produced at the Medical Research Centre of the University of Navarra (CIMA), under the direction of Dr Aránzazu González Miqueo.
(§3) Eight-week-old mice were administered 3.5×10^10 particles of adeno-associated virus type 9 that encoded either the fluorescent reporter td-Tomato (Aav-dt-T) alone, or the reporter and the peptide DECA-11. At 12 weeks of age, an echocardiographic check-up (baseline) was performed and at week 13 they underwent surgery in which the aorta was ligated (TAC animals) or not (Sham animals).
(§4) That same week they were sent to the UCM animal facility. Next, the mice were heparinised and anaesthetised and then sacrificed by cervical dislocation, at a rate of one per day, and a thoracotomy was performed to remove the heart which was mounted through the aorta into a cannula connected to a Langendorff apparatus for enzymatic dissociation of the cardiac myocytes. After removal of the heart, said heart was cannulated through the aorta and placed in a Langendorff apparatus. First, the hearts were perfused with modified Tyrode's solution (composition in mM: 136 NaCI, 4 KCI, 2 MgCl2, 1.8 CaCl2, 10 HEPES, 10 glucose, 3 pyruvic acid and 0.1 thiamine, pH=7.4 with NaOH) bubbled with oxygen and at 37°C for 3-5 minutes. Subsequently, they were perfused for another 8 minutes with the same solution without CaCl2. After 1-2 minutes, the heart stops beating. Next, they were perfused with Tyrode's solution without CaCl2 supplemented with 120 u/ml collagenase type II from Worthington and 0.5 u/ml protease XIV from Sigma. Lastly, the hearts were perfused with a solution called KB of the following composition (mM): 25 KCI, 10 KH2PO4, 2 MgCI2, 0.5 EGTA-K, 5 HEPES-K, 100 glutamic acid, 10 aspartic acid, 20 taurine, 5 creatine and 10 glucose (pH=7.2 with KOH). After this process has been completed, the heart was detached from the cannula and shaken in aliquots of KB solution where the myocytes were disintegrated and stored in the refrigerator for at least one hour before electrophysiological recordings were started.
Capacitance is an indirect and reliable measure of cell size. As can be observed, there was no significant difference in the capacitance of myocytes from Sham animals, had they been infected with Ad-td-Tomato (control) or with Aav-DECA-11.
To record INa in mouse cardiomyocytes, the composition of the external solution was (mM): 4 NaCl, 1 MgCl2, 1 CaCl2, 0.1 CdCl2, 133.5 CsCl, 20 HEPES and 11 glucose (pH=7.35 with CsOH) and the solution that filled the recording micropipette was (mM): 10 NaF, 110 CsF, 20 CsCl, 10 HEPES and 10 EGTA (pH 7.35 with CsOH). All other protocols and conditions were the same as those used for recording INa in human iPSC-derived cardiomyocytes (according to Example 2.3).
(§5) As indicated above, IK1 was also recorded in mouse cardiomyocytes from all four groups. […] In fact, the density of IK1 in TAC animals pretreated with DECA-11 is not different from that recorded in Sham animals.

[3] = system: human iPSC-derived cardiomyocytes; test: INa density in hiPSC-CM infected with AAV9 encoding the peptide, patch-clamp; format: cell-based; conditions: hiPSC-CM infected 48 hours with AAV9 encoding DECA-11; vs. Ad-td-Tomato infected cardiomyocytes; P<0.05
[4] = system: human iPSC-derived cardiomyocytes; test: IK1 density in hiPSC-CM infected with AAV9 encoding the peptide, patch-clamp; format: cell-based; conditions: hiPSC-CM infected 48 hours with AAV9 encoding DECA-11; vs. Ad-td-Tomato infected cardiomyocytes; P<0.05
[5] = system: minimal promoter of the human SCN5A gene; test: Luciferase promoter assay in hEK-293 cells, SCN5A; format: cell-based; conditions: hEK-293 cells co-transfected with cDNA SEQ ID NO: 5; 48 hours after transfection
Procedure: as §1

[6] = system: minimal promoter of the human KCNJ2 gene; test: Luciferase promoter assay in hEK-293 cells, KCNJ2; format: cell-based; conditions: hEK-293 cells co-transfected with cDNA SEQ ID NO: 5; 48 hours after transfection
Procedure: as §1

[7] = system: dissociated cardiomyocytes from Sham and TAC mice; test: Capacitance (cell size) of dissociated cardiomyocytes, murine TAC model of HFrEF; format: in vivo; conditions: TAC animals treated with DECA-11 (AAV9) vs. untreated TAC animals
Description: as §2, §3
(§6) That same week they were sent to the UCM animal facility. Next, the mice were heparinised and anaesthetised and then sacrificed by cervical dislocation, at a rate of one per day, and a thoracotomy was performed to remove the heart which was mounted through the aorta into a cannula connected to a Langendorff apparatus for enzymatic dissociation of the cardiac myocytes. […]

[8] = system: dissociated cardiomyocytes from Sham and TAC mice; test: INa density in dissociated cardiomyocytes, murine TAC model of HFrEF; format: in vivo; conditions: pre-treatment with DECA-11 (AAV9)
Description: as §2, §3, §6

[9] = system: dissociated cardiomyocytes from Sham and TAC mice; test: IK1 density in dissociated cardiomyocytes, murine TAC model of HFrEF; format: in vivo; conditions: for IK1: administration of DECA-11 (AAV9)
Description: as §2, §3
as §4, with “Lastly, the hearts were perfused with a solution called KB of the following composition (mM): 25 KCI, 10 KH2PO4, 2 MgCI2, 0.5 EGTA-K, 5 HEPES-K, 100 glutamic acid, 10 aspartic acid, 20 taurine, 5 creatine and 10 glucose (pH=7.2 with KOH). After this process has been completed, the heart was detached from the cannula and shaken in aliquots of KB solution where the myocytes were disintegrated and stored in the refrigerator for at least one hour before electrophysiological recordings were started.” left out
as §5

[10] = system: human iPSC-derived cardiomyocytes; conditions: hiPSC-CM; sustained current sensitive to TTX (10 µM), as percentage of the current peak; 500 ms pulses from -120 to -45 mV
[11] = cardiomyocytes from Sham animals
[12] = cardiomyocytes from TAC animals

Sequence | effect on the minimal promoter of the human SCN5A gene [1] | capacitance of myocytes ([2]; TAC animals, vs untreated TAC animals) | IK1 [2, 11] | density of INa [2, 11] | IK1 [2, 12] | density of INa [2, 12] | density of INa [3] | density of IK1 [4] | effect on the minimal promoter of the human SCN5A gene (luciferase) [5] | effect on the minimal promoter of the human KCNJ2 gene (luciferase) [6] | capacitance of myocytes [7] | density of INa ([8]; TAC cardiomyocytes) | density of INa [8, 11] | IK1 ([9]; Sham animals) | density of IK1 compared with that recorded in Sham animals ([9]; TAC animals pretreated with DECA-11 vs. Sham animals) | IK1 ([9]; TAC animals) | INaL [10]
RFTRESLAAIE [DECA-11, RFTRESLAAIE] | no significant effect | significantly lower | significantly increases IK1 | increased the density of INa | significantly increases IK1 | significantly and markedly increased the density of INa |  |  |  |  |  |  |  |  |  |  | 
RFTRESLAAIE (listed as Homo sapiens) [SEQ ID NO: 3] |  |  |  |  |  |  | significantly increase | significantly increase | no significant effect | protranscriptional effect | significantly lower | significantly and markedly increased | increased | significantly increases | not different | significantly increases | does not increase
